{
  "source": "paper PMC6234764",
  "about": "“First Insights Into Within Host Translocation of the Bacillus cereus Toxin Cereulide Using a Porcine Model” (Frontiers in Microbiology, 2018)",
  "key": {"[1]": {"assay": "Excretion of cereulide in feces and urine, SIDA-MS", "format": "in vivo, pig", "description": "(§1) A total of four experiments, each including four treated animals and one control pig, was performed to investigate the action of cereulide on piglets after oral intake of cereulide. Pigs were either challenged orally with a single dose (acute trials) or with daily over a period of 7 days (chronic trial) (see Table 1). One hour before cereulide toxin administration blood samples were taken by puncturing the anterior Vena cava and piglets were weighed for calculation of the cereulide concentration (t = 0 h). In the intoxication experiment with 150 μg kg^-1 blood samples were taken 68 h before the experiment to reduce the distress for the animals at the start day of the experiments. Blood-chemical, immunological, and histological analyses of selected organs as well as quantification of cereulide in organs, tissues, urine and feces were carried out as detailed below.\n(§2) On body weight calculated amounts of cereulide, dissolved in ethanol, were mixed with milk (UHT milk; 3.5% fat), and fed to four piglets. Control piglets were fed with milk supplemented with similar ethanol concentrations as the experimental piglets. The experiment started after the uptake of the whole milk cereulide mixture. The milk was checked for bacterial contamination prior to the experiment.\n(§3) After oral administration of cereulide, piglets were monitored for unusual behavior and examined physically with special respect on rectal body temperature as well as pulse and respiration rate, every 2–3 h. Blood samples were taken from the Vena cava cranialis. Urine and feces were collected during the whole experiment and stored at -80°C. After the experiment pigs were anaesthetized by intramuscular injection of a bolus of ketamine (10 mg kg^-1) and azaperone (1.3 mg kg^-1). When sedation was deep enough cerebrospinal fluid (liquor) was taken by lumbar puncture. Finally, pigs were euthanized by intracardial injection of T61®. Animals were then necropsied and parts of the following organs, tissues or body fluids were taken for SIDA-MS analysis: liver, lung, heart, kidney, brain, spleen, small and large intestine, lymph nodes, gastric as well as intestinal contents, skeletal muscle, and abdominal and subcutaneous fat. Samples of liver, lung, heart, kidney, brain, spleen, small, and large intestine were collected for histological analysis.\nCollected blood samples, urine, feces, tissue and organs were freeze dried and stored at -80°C until analysis. Before extraction, liquid nitrogen was added to frozen samples and they were crushed to a powder using a mortar. Ten microgram ^13C6-cereulide (for organs and feces) or 5 μg ^13C6-cereulide (for urine and blood) was added and samples were incubated on a rocking table for 2 h. Samples were solved in ethanol (volume depending on weight 10–40 mL), incubated 14 h, and the supernatants were collected by centrifugation (RT, 8500 g, 10 min). For pre-purification the ethanolic extract was 1:5 diluted with water and applied onto the top of a methanol activated C18-SPE cartridge (6 mL; 1 g; Strata C18-E; Phenomenex, Aschaffenburg, Germany). The cartridge was washed with 6 mL water followed by methanol/water (4 mL; 70/30, v/v) and target compounds were eluted with ethanol (2.5 mL). Finally, samples were membrane filtrated (0.2 μm; PTFE membrane; Phenomenex, Aschaffenburg, Germany) and analyzed by means of LC-MS/MS as described previously ([Bauer et al., 2010]). In brief, LC-MS/MS analysis was performed using an Agilent 1200 HPLC-system connected to the API 4000QTrap LC-MS/MS (Applied Biosystems, Darmstadt, Germany) running in the positive electrospray ionization (ESI^+, +5500 V) mode. Zero grade air served as nebulizer gas (45 psi) and turbo gas (425°C) for solvent drying (55 psi), nitrogen was used as curtain (20 psi) and collision gas (8.7 × 10^-7 psi), respectively. Both quadrapoles were set at unit resolution. […]"}, "[2]": {"assay": "Cereulide in blood, SIDA-MS", "format": "in vivo, pig", "description": "as §1, §2, §3\nCollected blood samples, urine, feces, tissue and organs were freeze dried and stored at -80°C until analysis. Before extraction, liquid nitrogen was added to frozen samples and they were crushed to a powder using a mortar. […] Finally, samples were membrane filtrated (0.2 μm; PTFE membrane; Phenomenex, Aschaffenburg, Germany) and analyzed by means of LC-MS/MS as described previously ([Bauer et al., 2010]). […]"}, "[3]": {"system": "piglets", "assay": "Histological examination of organs", "format": "in vivo, pig", "conditions": "pigs orally challenged with cereulide", "description": "as §3"}, "[4]": {"conditions": "ref Andersson et al., 2007; cited from earlier work", "description": "Due to the lipophilic character of cereulide (log Kow 5.96) ([Andersson et al., 2007]), it could be assumed that part of the ingested cereulide adheres to digested food and is rapidly excreted via feces. Indeed, as shown in our porcine model, within the first 48 h 10–15% of the cereulide toxin orally administered is shed with feces. Cereulide was already detected in feces a few hours after toxin administration, which allows an early, non-invasive identification of cereulide intoxications. Even in case of the low dose of cereulide used in the chronic trial (10 μg cereulide kg^-1) cereulide coul ..."}, "[5]": {"system": "Min6 cells and whole mouse pancreatic islets", "conditions": "ref Vangoitsenhoven et al., 2014; cited from earlier work", "description": "Low concentrations of cereulide can cause dysfunction in beta-cell lines ([Vangoitsenhoven et al., 2014]) and have been reported to be detrimental toward isolated porcine pancreatic Langerhans islets ([Virtanen et al., 2008]). Using Min6 cells and whole mouse pancreatic islets as model, it could be shown that low concentrations of cereulide (0.25–0.5 ng/mL) are directly effecting the insulin secretory machinery ([Vangoitsenhoven et al., 2014]). Based on their in vitro findings the authors hypothesized that cereulide may contribute to the rise of prevalence of diabetes observed worldwide, as a ..."}, "[6]": {"conditions": "ref Ehling-Schulz et al., 2004, Rajkovic et al., 2008, cited from earlier work", "description": "The reported incidence of foodborne outbreaks caused by Bacillus toxins is steadily increasing worldwide throughout the last decade. For instance, in the European Union about 600–700 confirmed cases of foodborne outbreaks linked to B. cereus toxins are annually reported ([Messelhäußer and Ehling-Schulz, 2018]). Due to the rise of reports on severe intoxications, the Bacillus cereus toxin cereulide is of special concern. Cereulide is a small dodecadepsipeptide toxin that evokes emesis a short time after ingestion of contaminated food ([Agata et al., 1995]). Usally the disease is self limiting b ..."}, "[7]": {"conditions": "daily oral dose 10 μg kg^-1 over 7 days"}},
  "data": [
    {"smiles": "CC(C)C[C@H]1OC(=O)[C@H](C(C)C)NC(=O)[C@H](C(C)C)OC(=O)[C@@H](C)NC(=O)[C@@H](CC(C)C)OC(=O)[C@H](C(C)C)NC(=O)[C@H](C(C)C)OC(=O)[C@@H](C)NC(=O)[C@@H](CC(C)C)OC(=O)[C@H](C(C)C)NC(=O)[C@H](C(C)C)OC(=O)[C@@H](C)NC1=O", "note": "[cereulide]", "values": [
      {"measurement": "Cereulide concentration in feces", "setting": "[1]; daily oral dose 10 μg kg^-1, until end of trial on day 7", "result": "0.02 to 0.29", "unit": "μg cereulide g^-1 feces"},
      {"measurement": "Detectability of cereulide in urine", "setting": "[1]; [7]", "result": "no cereulide was detectable"},
      {"measurement": "Time until cereulide became detectable in fecal samples", "setting": "[1]; [7]", "result": "2 to 3", "unit": "days"},
      {"measurement": "Amount of cereulide excreted with the feces", "setting": "[1]; one pig (13 kg), 30 μg kg^-1 (total intake 390 μg), after 12 h", "result": 20.90, "unit": "µg"},
      {"measurement": "Amount of cereulide excreted with the feces", "setting": "[1]; one pig (13 kg), 30 μg kg^-1 (total intake 390 μg), after 24 h", "result": 26.80, "unit": "µg"},
      {"measurement": "Amount of cereulide excreted with the feces", "setting": "[1]; one pig (13 kg), 30 μg kg^-1 (total intake 390 μg), after 48 h", "result": 1.38, "unit": "µg"},
      {"measurement": "Total amount of cereulide excreted with the feces", "setting": "[1]; one pig (13 kg), 30 μg kg^-1 (total intake 390 μg), in 33.6 g feces over 48 h", "result": 49.08, "unit": "µg"},
      {"measurement": "Cereulide concentration in fecal samples, maximum", "setting": "[1]; oral challenge, SIDA-MS", "result": "up to 5 μg cereulide g^-1 feces"},
      {"measurement": "Overall cereulide excretion in feces, % of total amount", "setting": "[1]; single oral dose 30 μg kg^-1, within first 48 h", "result": "up to 13%"},
      {"measurement": "Time of first detection in fecal samples post-toxin exposure", "setting": "[1]; single oral dose 150 μg kg^-1", "result": "3 to 4", "unit": "h"},
      {"measurement": "Cereulide concentration in urine, maximum", "setting": "[1]; single oral dose 150 μg kg^-1, SIDA-MS", "result": "up to 2 ng cereulide mL^-1 urine"},
      {"measurement": "Overall cereulide excretion in feces, % of total quantity administered", "setting": "[1]; single oral dose 150 μg kg^-1, within first 48 h", "result": "up to 15%"},
      {"measurement": "Time of highest toxin amounts excreted with feces", "setting": "[1]; single oral dose 150 μg kg^-1, exception one pig that did not defecate over 20 h", "result": "16 to 24", "unit": "h"},
      {"measurement": "Detectability of cereulide in urine", "setting": "[1]; single oral doses 10 μg kg^-1/30 μg kg^-1, SIDA-MS", "result": "not from animals challenged with lower cereulide doses"},
      {"measurement": "Cereulide orally administered that is shed with feces", "setting": "[1]; within the first 48 h, acute trials", "result": "10–15%"},
      {"measurement": "Detectability of cereulide in blood", "setting": "[2]; single oral dose 150 μg kg^-1, after 24–48 h", "result": "detectable in three out of four pigs"},
      {"measurement": "Highest concentration of cereulide in the blood", "setting": "[2]; single oral dose 150 μg kg^-1, one animal", "result": 45, "unit": "ng cereulide mL^-1"},
      {"measurement": "Time of first detection in blood", "setting": "[2]; single oral dose 150 μg kg^-1, pig with highest blood levels", "result": 8, "unit": "h"},
      {"measurement": "Maximum cereulide in blood after 24 h", "setting": "[2]; single oral dose 150 μg kg^-1, pig with lowest abdominal fat level, 24 h", "result": 45, "unit": "ng cereulide mL^-1"},
      {"measurement": "Histological examinations of liver, lung, heart, kidneys, brain, spleen and gastrointestinal tract", "setting": "[3]", "result": "did not reveal any notable or specific pathological changes"},
      {"measurement": "log Kow", "setting": "[4]", "result": 5.96},
      {"measurement": "Low concentrations directly effecting the insulin secretory machinery", "setting": "[5]", "result": "0.25 to 0.5", "unit": "ng/mL"},
      {"measurement": "Stability to enzymatic cleavage", "setting": "[6]; gastro-intestinal passage", "result": "resistance to enzymatic cleavage"},
      {"measurement": "Temperature and pH stability", "setting": "[6]", "result": "high temperature and pH stability"}
    ]}
  ]
}
